The record followed here is patent publication US11987542B2, “Co-crystal of sorafenib derivatives and process for preparation thereof” (EicOsis, LLC, priority 2018, dated 2024).

Format in all cases: biochemical
In one experiment the target is T1, Sheep sEH (Ovis aries, UniProt A0ACI6PZ20).
T1 sequence (A0ACI6PZ20 1-549): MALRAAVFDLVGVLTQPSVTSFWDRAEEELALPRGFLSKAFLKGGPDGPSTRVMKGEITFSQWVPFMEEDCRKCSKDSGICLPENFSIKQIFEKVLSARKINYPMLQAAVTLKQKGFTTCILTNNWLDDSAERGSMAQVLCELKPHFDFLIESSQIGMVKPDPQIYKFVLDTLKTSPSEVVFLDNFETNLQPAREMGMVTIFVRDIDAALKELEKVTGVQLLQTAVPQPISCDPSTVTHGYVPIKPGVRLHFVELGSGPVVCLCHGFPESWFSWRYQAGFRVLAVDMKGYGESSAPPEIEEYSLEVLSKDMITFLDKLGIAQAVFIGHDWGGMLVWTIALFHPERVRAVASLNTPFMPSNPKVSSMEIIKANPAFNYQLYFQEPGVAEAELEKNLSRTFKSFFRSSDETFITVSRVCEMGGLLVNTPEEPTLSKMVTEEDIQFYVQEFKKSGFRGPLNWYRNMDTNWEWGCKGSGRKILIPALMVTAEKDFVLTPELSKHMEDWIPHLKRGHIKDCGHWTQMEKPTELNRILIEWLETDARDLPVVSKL
In words: sEH inhibition, radioactive assay and liver cytosolic preparation.

Another experiment addresses T2, Rat sEH (Rattus norvegicus, UniProt P80299).
T2 sequence (P80299 1-554): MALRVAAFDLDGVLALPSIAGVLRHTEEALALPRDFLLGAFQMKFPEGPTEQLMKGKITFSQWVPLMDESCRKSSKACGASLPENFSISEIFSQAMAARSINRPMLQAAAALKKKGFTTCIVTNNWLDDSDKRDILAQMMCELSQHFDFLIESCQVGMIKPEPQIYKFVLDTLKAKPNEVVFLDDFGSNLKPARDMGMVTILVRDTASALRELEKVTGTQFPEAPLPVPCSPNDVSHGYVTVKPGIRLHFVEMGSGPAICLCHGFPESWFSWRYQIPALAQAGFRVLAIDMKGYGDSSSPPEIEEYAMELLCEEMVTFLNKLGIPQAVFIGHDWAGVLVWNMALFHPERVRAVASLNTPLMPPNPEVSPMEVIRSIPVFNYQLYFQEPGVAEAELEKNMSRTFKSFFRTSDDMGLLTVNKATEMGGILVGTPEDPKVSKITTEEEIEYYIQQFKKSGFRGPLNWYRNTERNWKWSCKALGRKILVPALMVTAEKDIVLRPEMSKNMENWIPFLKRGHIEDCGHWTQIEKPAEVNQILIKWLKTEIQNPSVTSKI
The experiment in a line: sEH inhibition, fluorescent assay.

For the next experiment, the target named is T3, Pig sEH (Sus scrofa, UniProt Q6Q2C2).
T3 construct: from tissue
T3 sequence (Q6Q2C2 1-555): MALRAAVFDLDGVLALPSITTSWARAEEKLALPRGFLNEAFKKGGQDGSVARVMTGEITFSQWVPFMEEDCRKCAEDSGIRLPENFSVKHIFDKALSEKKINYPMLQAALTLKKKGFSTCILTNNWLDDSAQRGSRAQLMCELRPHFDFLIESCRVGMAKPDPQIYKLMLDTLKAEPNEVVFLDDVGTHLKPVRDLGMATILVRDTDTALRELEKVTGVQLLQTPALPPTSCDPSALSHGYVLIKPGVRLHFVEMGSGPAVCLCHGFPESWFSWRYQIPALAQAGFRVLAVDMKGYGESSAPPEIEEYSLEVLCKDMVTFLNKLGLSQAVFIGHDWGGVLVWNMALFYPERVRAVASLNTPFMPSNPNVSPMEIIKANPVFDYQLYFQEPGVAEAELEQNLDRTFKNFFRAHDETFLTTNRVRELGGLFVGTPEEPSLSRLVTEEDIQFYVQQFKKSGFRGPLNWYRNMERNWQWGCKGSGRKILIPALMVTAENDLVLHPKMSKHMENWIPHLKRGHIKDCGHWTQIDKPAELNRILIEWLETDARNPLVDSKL
In words: sEH inhibition, radioactive assay and liver cytosolic preparation.

Turning to `O=C(Nc1ccc(OC(F)(F)F)cc1)N[C@H]1CC[C@H](Oc2ccc(C(=O)O)cc2)CC1` [EC1728, trans-4-{4-[3-(4-trifluoromethoxy-phenyl)-ureido]-cyclohexyloxy}-benzoic acid], the IC50 at Sheep sEH came to 6 nM; against Rat sEH, 16 nM; on Pig sEH it was 29 nM.
